Active and inactive are the calls of the source. Cut-off read from the data, not from the text of the source: actives have a measured IC50 and inactives only a lower limit.

For the assay, the target named is Envelope glycoprotein gp160 (Human immunodeficiency virus 1, UniProt Q6QLK5). The experiment in a line: cell-free HIV fusion peptide-binding blockers – biochemical, uHTS, fluorescence dequenching, […] (AID 1986).
Chain of Envelope glycoprotein gp160 (Q6QLK5 whole entry, the tested form may be a part): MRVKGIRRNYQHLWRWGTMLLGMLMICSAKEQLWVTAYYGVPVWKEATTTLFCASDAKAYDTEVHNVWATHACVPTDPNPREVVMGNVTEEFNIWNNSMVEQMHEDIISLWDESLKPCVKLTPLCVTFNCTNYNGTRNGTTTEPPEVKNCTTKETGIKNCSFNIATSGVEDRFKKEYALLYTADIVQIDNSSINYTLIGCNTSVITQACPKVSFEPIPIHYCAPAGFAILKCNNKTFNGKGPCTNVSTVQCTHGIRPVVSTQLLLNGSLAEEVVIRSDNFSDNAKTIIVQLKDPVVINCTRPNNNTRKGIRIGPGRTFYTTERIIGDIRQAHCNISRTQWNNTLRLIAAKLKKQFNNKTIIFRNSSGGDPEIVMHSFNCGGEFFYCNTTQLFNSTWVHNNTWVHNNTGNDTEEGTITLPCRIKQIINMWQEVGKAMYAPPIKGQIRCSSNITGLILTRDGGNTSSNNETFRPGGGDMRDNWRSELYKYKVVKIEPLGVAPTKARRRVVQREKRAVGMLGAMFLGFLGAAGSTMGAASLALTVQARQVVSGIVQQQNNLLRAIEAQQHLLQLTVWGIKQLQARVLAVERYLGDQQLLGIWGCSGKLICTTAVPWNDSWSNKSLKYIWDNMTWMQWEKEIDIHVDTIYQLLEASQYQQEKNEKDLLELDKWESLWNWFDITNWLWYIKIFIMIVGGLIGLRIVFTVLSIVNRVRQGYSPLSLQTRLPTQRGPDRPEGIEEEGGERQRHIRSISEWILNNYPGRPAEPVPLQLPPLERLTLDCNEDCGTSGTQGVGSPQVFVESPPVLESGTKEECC
Regarding `CCc1ccc(S(=O)(=O)/N=C2\C=C(NS(=O)(=O)c3ccccc3)C(=O)c3ccccc32)cc1`, the 50% inhibitory concentration (IC50) (in general, the point on the concentration scale where inhibition reaches its midpoint) is 19.7 µM (active). The result for `O=C(O)c1[nH]c2ccccc2c1C(c1ccccc1)c1c(C(=O)O)[nH]c2ccccc12` reads 14 µM (active). The result for `O=C(O)C1Nc2ccc(Br)cc2C2C=CCC12` (centres undefined) reads 10.9 µM (active); that for `Cc1sc(-n2c(C)cc(/C=C3\SC(=S)NC3=O)c2C)c(C#N)c1C`, 24.1 µM (active).

Source of the values: ChEMBL document CHEMBL1201862, “PubChem BioAssay data set” (2004).
